The values below come from ChEMBL document CHEMBL6092186, “Semisynthetic Ecdysteroid Cinnamate Esters and tert-Butyl Oxime Ether Derivatives with Trypanocidal Activity” (J Nat Prod, 2024).

The source made the active and inactive calls. The calls are words filed in the database; no cut-off is given here. Some results are limits rather than exact numbers.

Data set [1] concerns Trypanosoma cruzi. Description: Anti-trypanosomal activity against Trypanosoma cruzi epimastigotes assessed as inhibition of parasitic proliferation at 5 uM incubated for 72 hrs by XTT assay relative to control. In kind it is functional. A general note: Tetrazolium dyes change colour on reduction, which living cells bring about.
For another data set, the system named is CHO. The data set is described as follows: Cytotoxicity against CHO cells at 5 uM incubated for 72 hrs by MTT assay. Format: toxicity, cell-based, Cricetulus griseus. The settings on record: chinese hamster.
The subject of the next data set is Trypanosoma. Description: Anti-trypanosomal activity against Trypanosoma. In kind it is functional, organism-based.
Data set [2] relates to Trypanosoma cruzi. Description: Trypanocidal activity against Trypanosoma cruzi epimastigotes incubated for 24 hrs by Neubauer chamber method. Format: functional, organism-based.

Turning to `CC(C)(O)CC[C@@H](OC(=O)/C=C/c1ccccc1)[C@](C)(O)[C@H]1CC=C2C3=C/C(=N\OC(C)(C)C)[C@@H]4C[C@@H](O)[C@@H](OC(=O)/C=C/c5ccccc5)C[C@]4(C)[C@H]3CC[C@@]21C`, the inhibition (usually the change of the read-out against control, counted positive when it falls) at 5 µM in the data set on Trypanosoma cruzi [1] is not below 30%.
`CC(C)(O)CC[C@@H](O)[C@](C)(O)[C@H]1CC=C2C3=C/C(=N\OC(C)(C)C)[C@@H]4C[C@@H](O)[C@@H](OC(=O)/C=C/c5ccccc5)C[C@]4(C)[C@H]3CC[C@@]21C`: the inhibition at 5 µM in the data set on Trypanosoma cruzi [1] is not below 30%.
Consider `CC(C)(O)CC[C@@H](O)[C@](C)(O)[C@H]1CC=C2C3=C/C(=N/OC(C)(C)C)[C@@H]4C[C@@H](O)[C@@H](O)C[C@]4(C)[C@H]3CC[C@@]21C`, for which the inhibition entry with Trypanosoma cruzi [1] is “inactive”.
Regarding `CC(C)(O)CC[C@@H](OC(=O)/C=C/c1ccccc1)[C@](C)(O)[C@H]1CC[C@@]2(O)C3=CC(=O)[C@@H]4C[C@@H](O)[C@@H](OC(=O)/C=C/c5ccccc5)C[C@]4(C)[C@H]3CC[C@]12C`, the Activity entry in the data set on CHO is “Non-toxic”.
For `COc1cc(/C=C/C(=O)O)cc(OC)c1OC` [SINAPIC ACID METHYL ETHER], the IC50 (as a rule, the point on the concentration scale where inhibition reaches its midpoint) in the data set on Trypanosoma was more than 600 µM.
On the same count and under the same terms, for `COc1ccc(/C=C/C(=O)O)c(OC)c1` the value was more than 600 µM.
Regarding `CCCCCOC(=O)/C=C/c1ccc(O)cc1`, in the data set on Trypanosoma cruzi [2], the IC50 is approximately 5 µM.
Regarding `CC(C)(O)CC[C@@H](OC(=O)/C=C/c1ccccc1)[C@](C)(O)[C@H]1CC[C@@]2(O)C3=CC(=O)[C@@H]4C[C@@H](OC(=O)/C=C/c5ccccc5)[C@@H](O)C[C@]4(C)[C@H]3CC[C@]12C`, in the data set with CHO, the Activity result was “Non-toxic”.
For the compound `CC(C)(O)CC[C@@H](O)[C@](C)(O)[C@H]1CC=C2C3=C/C(=N/OC(C)(C)C)[C@@H]4C[C@@H](O)[C@@H](OC(=O)/C=C/c5ccccc5)C[C@]4(C)[C@H]3CC[C@@]21C`, in the data set on Trypanosoma cruzi [1], the inhibition at 5 µM is not below 30%.
Take `CC(C)(O)CC[C@H]1OC(C)(C)O[C@]1(C)[C@H]1CC[C@@]2(O)C3=C/C(=N\OC(C)(C)C)[C@@H]4C[C@H]5OC(C)(C)O[C@H]5C[C@]4(C)[C@H]3CC[C@]12C`: the Activity result in the data set on CHO is listed as “Non-toxic”.
The same measure, in the same setting: then `CC(C)(O)CC[C@H]1OC(C)(C)O[C@]1(C)[C@H]1CC=C2C3=C/C(=N/OC(C)(C)C)[C@@H]4C[C@H]5OC(C)(C)O[C@H]5C[C@]4(C)[C@H]3CC[C@@]21C`, with “Non-toxic”.
Take `CC(C)(O)CC[C@@H](O)[C@](C)(O)[C@H]1CC=C2C3=C/C(=N\OC(C)(C)C)[C@@H]4C[C@@H](O)[C@@H](O)C[C@]4(C)[C@H]3CC[C@@]21C`: the inhibition entry in the data set on Trypanosoma cruzi [1] was “inactive”.
As to `COc1ccc(/C=C/C(=O)O)cc1` [4-METHOXYCINNAMIC ACID], the IC50 in the data set with Trypanosoma is more than 600 µM.
Turning to `CC(C)(O)CC[C@@H](OC(=O)/C=C/c1ccccc1)[C@](C)(O)[C@H]1CC=C2C3=C/C(=N\OC(C)(C)C)[C@@H]4C[C@@H](OC(=O)/C=C/c5ccccc5)[C@@H](OC(=O)/C=C/c5ccccc5)C[C@]4(C)[C@H]3CC[C@@]21C`, the inhibition at 5 µM with Trypanosoma cruzi [1] is not below 30%.
